Laboratory results from PMC5218480 (PLoS ONE, 2017).

Tested on: MV-4-11 cells
Assay: Gene expression microarray analysis (Affymetrix PrimeView) and GSEA
Format: cell-based, human
Set-up: RFU PODN (11730768_x_at) / Fold change /veh PODN (11730768_x_at) / RFU LINC00158 (11744669_a_at) / Fold change /veh LINC00158 (11744669_a_at) / RFU DUSP10 (11751237_a_at) / Fold change /veh DUSP10 (11751237_a_at) / RFU ID3 (11757404_x_at) / Fold change /veh ID3 (11757404_x_at) / RFU PLEKHG5 (11737974_s_at) / Fold change /veh PLEKHG5 (11737974_s_at) / RFU LRRC4B (11730491_at) / Fold change /veh LRRC4B (11730491_at) / RFU GIMAP4 (11747438_a_at) / Fold change /veh GIMAP4 (11747438_a_at) / RFU KRT8 (11758183_x_at) / Fold change /veh KRT8 (11758183_x_at) / RFU CNN1 (11734310_a_at) / Fold change /veh CNN1 (11734310_a_at) / RFU VPS37D (11726825_at) / Fold change /veh VPS37D (11726825_at) / RFU C10orf10 (11716522_x_at) / Fold change /veh C10orf10 (11716522_x_at) / RFU KIR2DL2 /// KIR2DL4 /// KIR2DL5A /// KIR2DL5B /// KIR2DS1 /// KIR2DS2 /// KIR2DS3 /// KIR2DS4 /// KIR3DL3 /// KIR3DL3 /// KIR3DS1 (11738374_at) / Fold change /veh KIR2DL2 /// KIR2DL4 /// KIR2DL5A /// KIR2DL5B /// KIR2DS1 /// KIR2DS2 /// KIR2DS3 /// KIR2DS4 /// KIR3DL3 /// KIR3DL3 /// KIR3DS1 (11738374_at) / RFU C1QL1 (11718748_at) / Fold change /veh C1QL1 (11718748_at) / RFU TMPRSS4 (11747572_a_at) / Fold change /veh TMPRSS4 (11747572_a_at) / RFU HAMP (11756126_x_at) / Fold change /veh HAMP (11756126_x_at) / RFU RNFT2 (11725882_a_at) / Fold change /veh RNFT2 (11725882_a_at) / RFU NR4A2 (11747474_a_at) / Fold change /veh NR4A2 (11747474_a_at) / RFU ABCC12 (11746883_a_at) / Fold change /veh ABCC12 (11746883_a_at) / RFU TMEM136 (11760407_x_at) / Fold change /veh TMEM136 (11760407_x_at) / RFU CLDN22 /// WWC2 (11732394_at) / Fold change /veh CLDN22 /// WWC2 (11732394_at) / RFU HLA-DPB1 (11760878_x_at) / Fold change /veh HLA-DPB1 (11760878_x_at) / RFU SPINT1 (11716480_a_at) / Fold change /veh SPINT1 (11716480_a_at) / RFU GAP43 (11754022_s_at) / Fold change /veh GAP43 (11754022_s_at) / RFU A4GNT (11735810_at) / Fold change /veh A4GNT (11735810_at) / RFU PRB3 (11715151_x_at) / Fold change /veh PRB3 (11715151_x_at) / RFU TUBB4B (11761932_at) / Fold change /veh TUBB4B (11761932_at) / RFU CAPN14 (11732068_a_at) / Fold change /veh CAPN14 (11732068_a_at) / RFU TMCC2 (11721928_a_at) / Fold change /veh TMCC2 (11721928_a_at) / RFU IRGQ (11745062_a_at) / Fold change /veh IRGQ (11745062_a_at) / RFU FAM174B (11720279_a_at) / Fold change /veh FAM174B (11720279_a_at) / RFU TMPRSS4 (11748680_a_at) / Fold change /veh TMPRSS4 (11748680_a_at) / RFU FAM212B (11763350_a_at) / Fold change /veh FAM212B (11763350_a_at) / RFU PLEKHG5 (11743358_a_at) / Fold change /veh PLEKHG5 (11743358_a_at) / RFU ZSCAN30 (11745921_a_at) / Fold change /veh ZSCAN30 (11745921_a_at) / RFU CMKLR1 (11741424_a_at) / Fold change /veh CMKLR1 (11741424_a_at) / RFU LOC101060620 /// MAPK8IP1 (11723275_at) / Fold change /veh LOC101060620 /// MAPK8IP1 (11723275_at) / RFU SPTSSB (11747773_x_at) / Fold change /veh SPTSSB (11747773_x_at) / RFU PRSS12 (11739890_at) / Fold change /veh PRSS12 (11739890_at) / RFU BIN1 (11741810_x_at) / Fold change /veh BIN1 (11741810_x_at) / RFU WNT11 (11732464_a_at) / Fold change /veh WNT11 (11732464_a_at) / RFU C10orf10 (11716521_a_at) / Fold change /veh C10orf10 (11716521_a_at) / RFU C5orf56 (11738089_at) / Fold change /veh C5orf56 (11738089_at) / RFU CYB561 (11721691_x_at) / Fold change /veh CYB561 (11721691_x_at) / RFU ANKRD19P (11752326_a_at) / Fold change /veh ANKRD19P (11752326_a_at) / RFU OR2T12 /// OR2T33 /// OR2T8 (11738714_s_at) / Fold change /veh OR2T12 /// OR2T33 /// OR2T8 (11738714_s_at) / RFU VCAN (11748164_a_at) / Fold change /veh VCAN (11748164_a_at) / RFU JSRP1 (11732532_at) / Fold change /veh JSRP1 (11732532_at) / RFU KRTAP10-11 (11738290_x_at) / Fold change /veh KRTAP10-11 (11738290_x_at) / RFU MYO3A (11730013_a_at) / Fold change /veh MYO3A (11730013_a_at) / RFU EBF3 (11725865_a_at) / Fold change /veh EBF3 (11725865_a_at) / RFU CAMK2N1 (11719241_x_at) / Fold change /veh CAMK2N1 (11719241_x_at) / RFU C5orf56 (11738088_a_at) / Fold change /veh C5orf56 (11738088_a_at) / RFU OLFML3 (11715873_a_at) / Fold change /veh OLFML3 (11715873_a_at) / RFU LOC100653217 /// NTM (11731650_a_at) / Fold change /veh LOC100653217 /// NTM (11731650_a_at) / RFU MAPK11 (11762145_a_at) / Fold change /veh MAPK11 (11762145_a_at) / RFU FIZ1 (11724087_x_at) / Fold change /veh FIZ1 (11724087_x_at) / RFU OASL (11726364_x_at) / Fold change /veh OASL (11726364_x_at) / RFU SOX15 (11748057_x_at) / Fold change /veh SOX15 (11748057_x_at) / RFU CD79A (11719716_a_at) / Fold change /veh CD79A (11719716_a_at) / RFU HIST1H1D (11736915_at) / Fold change /veh HIST1H1D (11736915_at) / RFU CASKIN2 (11723855_a_at) / Fold change /veh CASKIN2 (11723855_a_at) / RFU LOC730098 (11760151_x_at) / Fold change /veh LOC730098 (11760151_x_at) / RFU OR4N2 (11742367_at) / Fold change /veh OR4N2 (11742367_at) / RFU PRRT2 (11749266_a_at) / Fold change /veh PRRT2 (11749266_a_at) / RFU SNX32 (11753110_a_at) / Fold change /veh SNX32 (11753110_a_at) / RFU CDHR5 (11726645_a_at) / Fold change /veh CDHR5 (11726645_a_at) / RFU RCAN1 (11760418_a_at) / Fold change /veh RCAN1 (11760418_a_at) / RFU FAM167A (11723789_a_at) / Fold change /veh FAM167A (11723789_a_at) / RFU FAM26E (11764081_at) / Fold change /veh FAM26E (11764081_at) / RFU ISYNA1 (11749810_s_at) / Fold change /veh ISYNA1 (11749810_s_at) / RFU ACY1 (11761880_at) / Fold change /veh ACY1 (11761880_at) / RFU 11764098_at / Fold change /veh 11764098_at / RFU SAMD14 (11745864_x_at) / Fold change /veh SAMD14 (11745864_x_at) / RFU NPB (11741838_a_at) / Fold change /veh NPB (11741838_a_at) / RFU TMPRSS6 (11731388_a_at) / Fold change /veh TMPRSS6 (11731388_a_at) / RFU KRTAP10-2 (11738614_at) / Fold change /veh KRTAP10-2 (11738614_at) / RFU ARHGAP8 /// PRR5-ARHGAP8 (11727945_x_at) / Fold change /veh ARHGAP8 /// PRR5-ARHGAP8 (11727945_x_at) / RFU KRTAP5-7 /// NADSYN1 (11734609_at) / Fold change /veh KRTAP5-7 /// NADSYN1 (11734609_at) / RFU RASL12 (11751679_a_at) / Fold change /veh RASL12 (11751679_a_at) / RFU CDKN2B (11736163_a_at) / Fold change /veh CDKN2B (11736163_a_at) / RFU PRF1 (11729649_at) / Fold change /veh PRF1 (11729649_at) / RFU, ZNF638 /// ZNF638-IT1 / Fold change vs veh, ZNF638 /// ZNF638-IT1 / RFU, PANK3 / Fold change vs veh, PANK3 / RFU, SH3YL1 / Fold change vs veh, SH3YL1 / RFU, ZEB2 / Fold change vs veh, ZEB2 / RFU, NRIP1 / Fold change vs veh, NRIP1 / RFU, PTTG1IP / Fold change vs veh, PTTG1IP / RFU, CAPN2 / Fold change vs veh, CAPN2 / RFU, MED14 / Fold change vs veh, MED14 / RFU, SNORA58 / Fold change vs veh, SNORA58 / RFU, C1orf63 / Fold change vs veh, C1orf63 / RFU, LRRFIP1 / Fold change vs veh, LRRFIP1 / RFU, NDUFAF7 / Fold change vs veh, NDUFAF7 / RFU, SLC12A2 / Fold change vs veh, SLC12A2 / RFU, IBTK / Fold change vs veh, IBTK / RFU, ESF1 / Fold change vs veh, ESF1 / Fold change vs veh, TMEM50B / RFU, TAOK1 / Fold change vs veh, TAOK1 / RFU, ACBD3 / Fold change vs veh, ACBD3 / RFU, TMA16 / Fold change vs veh, TMA16 / RFU, RWDD3 / Fold change vs veh, RWDD3 / RFU, BCAT1 / Fold change vs veh, BCAT1 / RFU, EDEM3 / Fold change vs veh, EDEM3 / RFU, TMEM33 / Fold change vs veh, TMEM33 / RFU, WDR75 / Fold change vs veh, WDR75 / RFU, AHCTF1 / Fold change vs veh, AHCTF1 / RFU, TFRC / Fold change vs veh, TFRC / RFU, ZDHHC17 / Fold change vs veh, ZDHHC17 / RFU, NOM1 / Fold change vs veh, NOM1 / RFU, ARL8B / Fold change vs veh, ARL8B / RFU, ZBTB11 / Fold change vs veh, ZBTB11 / RFU, TAMM41 / Fold change vs veh, TAMM41 / RFU, KIAA1704 /// LOC100996395 / Fold change vs veh, KIAA1704 /// LOC100996395 / RFU, ING1 / Fold change vs veh, ING1 / RFU, TRMT61B / Fold change vs veh, TRMT61B / RFU, FUBP3 / Fold change vs veh, FUBP3 / RFU, TP53 / Fold change vs veh, TP53 / RFU, TNKS2 / Fold change vs veh, TNKS2 / RFU, ZFP14 / Fold change vs veh, ZFP14 / RFU, ACTR2 / Fold change vs veh, ACTR2 / RFU, PPP3R1 / Fold change vs veh, PPP3R1 / RFU, PIK3R1 / Fold change vs veh, PIK3R1 / RFU, HNRNPA1 / Fold change vs veh, HNRNPA1 / RFU, RNF170 / Fold change vs veh, RNF170 / RFU, ZNF28 / Fold change vs veh, ZNF28 / RFU, RNGTT / Fold change vs veh, RNGTT / RFU, OGT / Fold change vs veh, OGT / RFU, BRD1 / Fold change vs veh, BRD1 / RFU, MARS / Fold change vs veh, MARS / RFU, ZNF655 / Fold change vs veh, ZNF655 / RFU, FAHD1 / Fold change vs veh, FAHD1 / RFU, BDP1 / Fold change vs veh, BDP1 / RFU, LRRCC1 / Fold change vs veh, LRRCC1 / RFU, ARID1A / Fold change vs veh, ARID1A / RFU, ZNF146 / Fold change vs veh, ZNF146 / RFU, ZNF330 / Fold change vs veh, ZNF330 / RFU, GPN3 / Fold change vs veh, GPN3 / RFU, C9orf123 / Fold change vs veh, C9orf123 / RFU, N4BP2L2 / Fold change vs veh, N4BP2L2 / RFU, ARFIP1 / Fold change vs veh, ARFIP1 / RFU, FAM179B / Fold change vs veh, FAM179B / RFU, BCL10 / Fold change vs veh, BCL10 / RFU, UHRF1BP1L / Fold change vs veh, UHRF1BP1L / RFU, BET1 / Fold change vs veh, BET1 / RFU, CNOT2 / Fold change vs veh, CNOT2 / RFU, ZNF268 / Fold change vs veh, ZNF268 / Fold change vs veh, ZNF507 / RFU, DGCR2 / Fold change vs veh, DGCR2 / RFU, WDSUB1 / Fold change vs veh, WDSUB1 / Fold change vs veh, HSP90B1 /// MIR3652 / RFU, ADSS / Fold change vs veh, ADSS / RFU, GK / Fold change vs veh, GK / RFU, ZNF148 / Fold change vs veh, ZNF148 / RFU, TAF9 / Fold change vs veh, TAF9 / RFU, SLC1A5 / Fold change vs veh, SLC1A5 / RFU, SLMO2 / Fold change vs veh, SLMO2 / RFU, ABCC4 / Fold change vs veh, ABCC4 / RFU, LOC101060439 /// RAP1B / Fold change vs veh, LOC101060439 /// RAP1B / RFU, RFX7 / Fold change vs veh, RFX7 / RFU, GTPBP10 / Fold change vs veh, GTPBP10 / RFU, CNEP1R1 / Fold change vs veh, CNEP1R1 / RFU, BIVM-ERCC5 /// ERCC5 / Fold change vs veh, BIVM-ERCC5 /// ERCC5 / RFU, ILF3 / Fold change vs veh, ILF3 / RFU 11762660_at / Fold change /veh 11762660_at / RFU VCAN (11757783_s_at) / Fold change /veh VCAN (11757783_s_at) / RFU DDX43 (11728927_at) / Fold change /veh DDX43 (11728927_at) / RFU KRT8 (11758188_x_at) / Fold change /veh KRT8 (11758188_x_at) / RFU NKD1 (11759106_at) / Fold change /veh NKD1 (11759106_at) / RFU SRD5A1 (11742802_a_at) / Fold change /veh SRD5A1 (11742802_a_at) / RFU TPSAB1 /// TPSB2 (11721975_s_at) / Fold change /veh TPSAB1 /// TPSB2 (11721975_s_at) / RFU GSTM3 (11746129_a_at) / Fold change /veh GSTM3 (11746129_a_at) / RFU IL23R (11737362_x_at) / Fold change /veh IL23R (11737362_x_at) / RFU TMEM51 (11727254_a_at) / Fold change /veh TMEM51 (11727254_a_at) / RFU PIWIL2 (11732686_x_at) / Fold change /veh PIWIL2 (11732686_x_at) / RFU ORM1 (11744905_x_at) / Fold change /veh ORM1 (11744905_x_at) / RFU CCDC152 (11743942_at) / Fold change /veh CCDC152 (11743942_at) / RFU ECM1 (11717891_a_at) / Fold change /veh ECM1 (11717891_a_at) / RFU IL23R (11748794_a_at) / Fold change /veh IL23R (11748794_a_at) / RFU TNFAIP8L3 (11732012_x_at) / Fold change /veh TNFAIP8L3 (11732012_x_at) / RFU MBOAT4 (11741988_at) / Fold change /veh MBOAT4 (11741988_at) / RFU 11764193_at / Fold change /veh 11764193_at / RFU TMEM53 (11763286_at) / Fold change /veh TMEM53 (11763286_at) / RFU MAGEB2 (11727129_at) / Fold change /veh MAGEB2 (11727129_at) / RFU TMEM200A (11744735_a_at) / Fold change /veh TMEM200A (11744735_a_at) / RFU CCDC152 (11751479_a_at) / Fold change /veh CCDC152 (11751479_a_at) / RFU FAM211A (11726209_a_at) / Fold change /veh FAM211A (11726209_a_at) / RFU RGS16 (11746705_a_at) / Fold change /veh RGS16 (11746705_a_at) / RFU VCAN (11755009_s_at) / Fold change /veh VCAN (11755009_s_at) / RFU RHOB (11743442_s_at) / Fold change /veh RHOB (11743442_s_at) / RFU RGS16 (11720943_a_at) / Fold change /veh RGS16 (11720943_a_at) / RFU RGS16 (11720944_at) / Fold change /veh RGS16 (11720944_at) / RFU, VPS4B / Fold change vs veh, VPS4B / RFU, CREB1 / Fold change vs veh, CREB1 / RFU, DNAJC13 / Fold change vs veh, DNAJC13 / RFU, GNAQ / Fold change vs veh, GNAQ / RFU, CDK5R1 / Fold change vs veh, CDK5R1 / RFU, ZRANB3 / Fold change vs veh, ZRANB3 / RFU, CUL4A / Fold change vs veh, CUL4A / RFU, CCNY / Fold change vs veh, CCNY / RFU, UFL1 / Fold change vs veh, UFL1 / RFU, COG3 / Fold change vs veh, COG3 / RFU, DIAPH2 / Fold change vs veh, DIAPH2 / RFU, SKA2 / Fold change vs veh, SKA2 / RFU, AFF3 / Fold change vs veh, AFF3 / RFU, LMF1 / Fold change vs veh, LMF1 / RFU, IPO11 / Fold change vs veh, IPO11 / RFU, DFFB / Fold change vs veh, DFFB / RFU, FOXP1 / Fold change vs veh, FOXP1 / RFU, CARD8 / Fold change vs veh, CARD8 / RFU, STRN3 / Fold change vs veh, STRN3 / RFU, ADK / Fold change vs veh, ADK / RFU, RASSF2 / Fold change vs veh, RASSF2 / RFU, WIPF1 / Fold change vs veh, WIPF1 / RFU, LARP1B / Fold change vs veh, LARP1B / RFU, RASA1 / Fold change vs veh, RASA1 / RFU, RB1 / Fold change vs veh, RB1 / RFU, PPFIA1 / Fold change vs veh, PPFIA1 / RFU, MAT2A / Fold change vs veh, MAT2A / RFU, CCT5 / Fold change vs veh, CCT5 / RFU, WDR92 / Fold change vs veh, WDR92 / RFU, CUX1 / Fold change vs veh, CUX1 / RFU, TTC7A / Fold change vs veh, TTC7A / RFU, TMEM135 / Fold change vs veh, TMEM135 / RFU, DEPTOR / Fold change vs veh, DEPTOR / RFU, CPM / Fold change vs veh, CPM / RFU, DNAJB6 / Fold change vs veh, DNAJB6 / RFU, CACNA2D3 / Fold change vs veh, CACNA2D3 / RFU, DTX4 / Fold change vs veh, DTX4 / RFU, TFCP2 / Fold change vs veh, TFCP2 / RFU, GMCL1 /// GMCL1P1 / Fold change vs veh, GMCL1 /// GMCL1P1 / RFU, AEBP2 / Fold change vs veh, AEBP2 / RFU, SNHG1 /// SNORD22 /// SNORD25 /// SNORD26 /// SNORD27 /// SNORD28 /// SNORD29 /// SNORD31 / Fold change vs veh, SNHG1 /// SNORD22 /// SNORD25 /// SNORD26 /// SNORD27 /// SNORD28 /// SNORD29 /// SNORD31 / Fold change (Aza/veh), C12orf56 (ProbeSet 11735607_a_at) / Fold change (ACY-1035/veh), C12orf56 (ProbeSet 11735607_a_at) / Fold change (Aza/veh), FGFR1OP (ProbeSet 11751329_s_at) / Fold change (ACY-1035/veh), FGFR1OP (ProbeSet 11751329_s_at) / Fold change (Aza/veh), VPS36 (ProbeSet 11739960_a_at) / Fold change (ACY-1035/veh), VPS36 (ProbeSet 11739960_a_at) / RFU SYPL1 (11715823_x_at) / Fold change /veh SYPL1 (11715823_x_at) / RFU IGFBP7 (11715501_s_at) / Fold change /veh IGFBP7 (11715501_s_at) / RFU REEP3 (11722064_at) / Fold change /veh REEP3 (11722064_at) / RFU IGLL1 (11728026_x_at) / Fold change /veh IGLL1 (11728026_x_at): dose or concentration left out as unconfirmed
Details: ProbeSet 11758397_s_at; LIST B

Structure (SMILES): Nc1ncn([C@@H]2O[C@H](CO)[C@@H](O)[C@H]2O)c(=O)n1 [azacitidine]
- Fold change vs veh, RNF170: 1.07
